# Data taken from patent publication US20180334540A1, “Polymeric Derivative Of Macrolide Immunosuppressant” (Nippon Kayaku Kabushiki Kaisha, priority 2015, published 2018).
# What was measured:
# [1] = test system: DA rats; experiment: Test on single-dose toxicity in rats
# Text: (§1) Female DA rats (Japan SLC, Inc.) were intravenously administered through the caudal vein with tacrolimus or Example 1, each once in the dosage indicated in Table 4 and Table 5, and an observation of general symptoms was made successively.
# [2] = test system: rats; details: cited from earlier work
# [3] = Blood concentration profile in rats; format: in vivo; details: female, SD, whole blood, iv, tacrolimus in rat blood, 5 mg/kg once i.v. caudal vein, Examples: tacrolimus cut out from micelles
# Text: Blood Concentration Profile in Rats
# The results for Examples 1 to 4 and tacrolimus are presented in FIG. 3, and the results for Examples 5 to 8 and tacrolimus are presented in FIG. 4.
# [4] = test system: DA rats; details: rat, in vivo, iv, 20 mg/kg
# Text: as §1
smiles,measurement,setting,value
"C=CC[C@@H]1/C=C(\C)C[C@H](C)C[C@H](OC)[C@H]2O[C@@](O)(C(=O)C(=O)N3CCCC[C@H]3C(=O)O[C@H](/C(C)=C/[C@@H]3CC[C@@H](O)[C@H](OC)C3)[C@H](C)[C@@H](O)CC1=O)[C@H](C)C[C@@H]2OC [Tacrolimus, tacrolimus]",cerebral cortex pathology of dead rats,[1]; FIG. 7,neuronal vacuolation was recognized
same,lethal dose,"[1]; single i.v. dose, female DA rats",lower than 20 mg/kg
same,death,"[1]; single i.v. dose, tacrolimus 20 and 30 mg/kg, Example 1 20-50 mg/kg in terms of tacrolimus",half the animals in each group died
same,symptoms caused by intravenous administration,[2],"slight respiratory distress, a decrease in locomotor activity, a prone position, stereotyped behavior"
same,AUC(0-inf),[3],5400 ng·h/mL
same,Cmax,[3],2430 ng/mL
same,MRT inf,[3],4.12 h
same,Tmax,[3],4.98 min
same,half-life,[3]; read-out: T½ (converted),7.51 h
same,general symptoms immediately after administration,[4],"a prone position, sedation, and a decrease in locomotor activity"
